Active and inactive are the calls of the source. No rule for the calls is given here.
Tested on: CCRIS mutagenicity, Ames/micronucleus/aberration tests
Experiment: CCRIS mutagenicity studies
[1] = Test System: AMES SALMONELLA TYPHIMURIUM, Strain/Indicator: TA98, Metabolic Activation: NONE, Method: PREINCUBATION
[2] = Test System: AMES SALMONELLA TYPHIMURIUM, Strain/Indicator: TA98, Metabolic Activation: RAT, LIVER, S-9, AROCLOR 1254, Method: PREINCUBATION
[3] = Test System: AMES SALMONELLA TYPHIMURIUM, Strain/Indicator: TA100, Metabolic Activation: NONE, Method: PREINCUBATION
[4] = Test System: AMES SALMONELLA TYPHIMURIUM, Strain/Indicator: TA100, Metabolic Activation: NONE, Method: STANDARD PLATE
[5] = Test System: AMES SALMONELLA TYPHIMURIUM, Strain/Indicator: TA100, Metabolic Activation: RAT, LIVER, S-9, AROCLOR 1254, Method: PREINCUBATION
[6] = Test System: AMES SALMONELLA TYPHIMURIUM, Strain/Indicator: TA1535, Metabolic Activation: NONE, Method: PREINCUBATION

CCCCCC(O)/C=C/C=O (configuration not stated)
mutagenic call (End Point: IN VITRO CHROMOSOMAL ABERRATIONS, Test System: RAT HEPATOCYTES, Metabolic Activation: NONE): active; positive | mutagenic call (End Point: IN VITRO CHROMOSOMAL ABERRATIONS, Test System: SWINE- BRAIN ENDOTHELIAL CELLS, Metabolic Activation: NONE): active; positive | mutagenic call (End Point: IN VITRO MICRONUCLEUS, Test System: RAT HEPATOCYTES, Metabolic Activation: NONE): active; positive | mutagenic call (End Point: IN VITRO MICRONUCLEUS, Test System: SWINE- BRAIN ENDOTHELIAL CELLS, Metabolic Activation: NONE): active; positive | mutagenic call (Test System: AMES SALMONELLA TYPHIMURIUM, Strain/Indicator: TA100, Metabolic Activation: NONE): inactive; negative | mutagenic call (Test System: AMES SALMONELLA TYPHIMURIUM, Strain/Indicator: TA104, Metabolic Activation: NONE): inactive; negative | mutagenic call (Test System: CHINESE HAMSTER V-79, Strain/Indicator: V-79/6-THIOGUANINE, Metabolic Activation: NONE): active; positive | mutagenic call (Test System: MOUSE LYMPHOMA, Strain/Indicator: L5178Y (TK+/TK-), Metabolic Activation: NONE, Method: SUSPENSION/PLATE): active; positive; administered as acetate

COc1c(C(C)(C)C)cc([N+](=O)[O-])c(C)c1[N+](=O)[O-]
mutagenic call (Test System: AMES SALMONELLA TYPHIMURIUM, Strain/Indicator: TA98, Metabolic Activation: HAMSTER, LIVER, S-9, AROCLOR 1254 (10%), Method: PREINCUBATION): inactive; negative | mutagenic call [1]: inactive; negative | mutagenic call (Test System: AMES SALMONELLA TYPHIMURIUM, Strain/Indicator: TA98, Metabolic Activation: NONE, Method: STANDARD PLATE): inactive; negative | mutagenic call (Test System: AMES SALMONELLA TYPHIMURIUM, Strain/Indicator: TA98, Metabolic Activation: RAT, LIVER, AROCLOR 1254, Method: STANDARD PLATE): inactive; negative | mutagenic call (Test System: AMES SALMONELLA TYPHIMURIUM, Strain/Indicator: TA98, Metabolic Activation: RAT, LIVER, S-9, AROCLOR 1254 (10%), Method: PREINCUBATION): inactive; negative | mutagenic call [2]: inactive; negative | mutagenic call (Test System: AMES SALMONELLA TYPHIMURIUM, Strain/Indicator: TA98, Metabolic Activation: RAT, LIVER, S-9, AROCLOR 1254, Method: STANDARD PLATE): inactive; negative | mutagenic call (Test System: AMES SALMONELLA TYPHIMURIUM, Strain/Indicator: TA100 (NR), Metabolic Activation: NONE, Method: STANDARD PLATE): inactive; negative | mutagenic call (Test System: AMES SALMONELLA TYPHIMURIUM, Strain/Indicator: TA100(NR), Metabolic Activation: RAT LIVER S-9, AROCLOR 1254, Method: STANDARD PLATE): inactive; negative | mutagenic call (Test System: AMES SALMONELLA TYPHIMURIUM, Strain/Indicator: TA100, Metabolic Activation: HAMSTER, LIVER, S-9, AROCLOR 1254 (10%), Method: PREINCUBATION): inactive; negative | mutagenic call [3]: inactive; negative | mutagenic call [4]: inactive; negative | mutagenic call (Test System: AMES SALMONELLA TYPHIMURIUM, Strain/Indicator: TA100, Metabolic Activation: RAT LIVER S-9, AROCLOR 1254, Method: STANDARD PLATE): active; positive | mutagenic call (Test System: AMES SALMONELLA TYPHIMURIUM, Strain/Indicator: TA100, Metabolic Activation: RAT, LIVER, S-9, AROCLOR 1254 (10%), Method: PREINCUBATION): inactive; negative | mutagenic call [5]: active; positive | mutagenic call (Test System: AMES SALMONELLA TYPHIMURIUM, Strain/Indicator: TA100, Metabolic Activation: RAT, LIVER, S-9, AROCLOR 1254, Method: STANDARD PLATE): active; positive | mutagenic call (Test System: AMES SALMONELLA TYPHIMURIUM, Strain/Indicator: TA1535, Metabolic Activation: HAMSTER, LIVER, S-9, AROCLOR 1254 (10%), Method: PREINCUBATION): inactive; negative | mutagenic call [6]: inactive; negative | mutagenic call (Test System: AMES SALMONELLA TYPHIMURIUM, Strain/Indicator: TA1535, Metabolic Activation: RAT, LIVER, S-9, AROCLOR 1254 (10%), Method: PREINCUBATION): inactive; negative | mutagenic call (Test System: AMES SALMONELLA TYPHIMURIUM, Strain/Indicator: TA1537, Metabolic Activation: HAMSTER, LIVER, S-9, AROCLOR 1254 (10%), Method: PREINCUBATION): inactive; negative | mutagenic call (Test System: AMES SALMONELLA TYPHIMURIUM, Strain/Indicator: TA1537, Metabolic Activation: NONE, Method: PREINCUBATION): inactive; negative | mutagenic call (Test System: AMES SALMONELLA TYPHIMURIUM, Strain/Indicator: TA1537, Metabolic Activation: RAT, LIVER, S-9, AROCLOR 1254 (10%), Method: PREINCUBATION): inactive; negative

COc1ccccc1O
mutagenic call (End Point: IN VITRO CHROMOSOMAL ABERRATIONS, Test System: SYRIAN HAMSTER EMBRYO (SHE) CELLS, Metabolic Activation: NONE): active; positive (structural changes) | mutagenic call (Test System: AMES SALMONELLA TYPHIMURIUM, Strain/Indicator: TA97, Metabolic Activation: HAMSTER, LIVER, S-9, AROCLOR 1254 (10 OR 30%), Method: VAPOR CHAMBER): inactive; negative | mutagenic call (Test System: AMES SALMONELLA TYPHIMURIUM, Strain/Indicator: TA97, Metabolic Activation: NONE, Method: VAPOR CHAMBER): inactive; negative | mutagenic call (Test System: AMES SALMONELLA TYPHIMURIUM, Strain/Indicator: TA97, Metabolic Activation: RAT, LIVER, S-9, AROCLOR 1254 (5, 10 OR 30%), Method: VAPOR CHAMBER): inactive; negative | mutagenic call (Test System: AMES SALMONELLA TYPHIMURIUM, Strain/Indicator: TA98, Metabolic Activation: HAMSTER, LIVER, S-9, AROCLOR 1254 (10 OR 30%), Method: VAPOR CHAMBER): inactive; negative | mutagenic call (Test System: AMES SALMONELLA TYPHIMURIUM, Strain/Indicator: TA98, Metabolic Activation: HAMSTER, LIVER, S-9, AROCLOR 1254 (30%), Method: PREINCUBATION): inactive; negative | mutagenic call [1]: inactive; negative | mutagenic call (Test System: AMES SALMONELLA TYPHIMURIUM, Strain/Indicator: TA98, Metabolic Activation: NONE, Method: VAPOR CHAMBER): inactive; negative | mutagenic call (Test System: AMES SALMONELLA TYPHIMURIUM, Strain/Indicator: TA98, Metabolic Activation: RAT, LIVER, S-9, AROCLOR 1254 (10 OR 30%), Method: VAPOR CHAMBER): inactive; negative | mutagenic call (Test System: AMES SALMONELLA TYPHIMURIUM, Strain/Indicator: TA98, Metabolic Activation: RAT, LIVER, S-9, AROCLOR 1254 (30%), Method: PREINCUBATION): inactive; negative | mutagenic call [2]: inactive; negative | mutagenic call (Test System: AMES SALMONELLA TYPHIMURIUM, Strain/Indicator: TA100, Metabolic Activation: HAMSTER, LIVER, S-9, AROCLOR 1254 (5, 10 OR 30%), Method: VAPOR CHAMBER): inactive; negative | mutagenic call (Test System: AMES SALMONELLA TYPHIMURIUM, Strain/Indicator: TA100, Metabolic Activation: HAMSTER, LIVER, S-9, AROCLOR 1254 (30%), Method: PREINCUBATION): inactive; negative | mutagenic call [3]: inactive; negative | mutagenic call (Test System: AMES SALMONELLA TYPHIMURIUM, Strain/Indicator: TA100, Metabolic Activation: NONE, Method: VAPOR CHAMBER): inactive; negative | mutagenic call (Test System: AMES SALMONELLA TYPHIMURIUM, Strain/Indicator: TA100, Metabolic Activation: RAT, LIVER, S-9, AROCLOR 1254 (5, 10 OR 30%), Method: VAPOR CHAMBER): inactive; negative | mutagenic call (Test System: AMES SALMONELLA TYPHIMURIUM, Strain/Indicator: TA100, Metabolic Activation: RAT, LIVER, S-9, AROCLOR 1254 (30%), Method: PREINCUBATION): inactive; negative | mutagenic call [5]: inactive; negative | mutagenic call (Test System: AMES SALMONELLA TYPHIMURIUM, Strain/Indicator: TA102, Metabolic Activation: NONE, Method: PREINCUBATION): inactive; negative | mutagenic call (Test System: AMES SALMONELLA TYPHIMURIUM, Strain/Indicator: TA102, Metabolic Activation: RAT, LIVER, S-9, AROCLOR 1254, Method: PREINCUBATION): inactive; negative | mutagenic call (Test System: AMES SALMONELLA TYPHIMURIUM, Strain/Indicator: TA1535, Metabolic Activation: HAMSTER, LIVER, S-9, AROCLOR 1254 (10 OR 30%), Method: VAPOR CHAMBER): inactive; negative | mutagenic call (Test System: AMES SALMONELLA TYPHIMURIUM, Strain/Indicator: TA1535, Metabolic Activation: NONE, Method: VAPOR CHAMBER): inactive; negative | mutagenic call (Test System: AMES SALMONELLA TYPHIMURIUM, Strain/Indicator: TA1535, Metabolic Activation: RAT, LIVER, S-9, AROCLOR 1254 (10 OR 30%), Method: VAPOR CHAMBER): inactive; negative

Clc1ccc(CC2CO2)cc1 (configuration not stated)
mutagenic call [3]: active; positive | mutagenic call [4]: active; positive | mutagenic call [6]: active; positive | mutagenic call (Test System: AMES SALMONELLA TYPHIMURIUM, Strain/Indicator: TA1535, Metabolic Activation: NONE, Method: STANDARD PLATE): active; positive
